Source: article PMC3136501 (PLoS ONE, 2011)
Like-named read-outs stand apart in the source and are kept apart here.

Assays:
[1] = target: T1, human OCT2 (Homo sapiens, UniProt O15244); experiment: Inhibition of OCT2-mediated metformin uptake in stably transfected HEK cells; format: cell-based; details: for IC50: 5 µM [14C]metformin uptake, 5 sec, HEK-OCT2, means ± SE of 3 experiments
T1 construct: OCT2: NP_003049.2; expressed in transfected cells; host or cells: HEK293 (ATCC), stably transfected with pcDNA3.1(+)-SLC22A2
T1 sequence (O15244 1-555): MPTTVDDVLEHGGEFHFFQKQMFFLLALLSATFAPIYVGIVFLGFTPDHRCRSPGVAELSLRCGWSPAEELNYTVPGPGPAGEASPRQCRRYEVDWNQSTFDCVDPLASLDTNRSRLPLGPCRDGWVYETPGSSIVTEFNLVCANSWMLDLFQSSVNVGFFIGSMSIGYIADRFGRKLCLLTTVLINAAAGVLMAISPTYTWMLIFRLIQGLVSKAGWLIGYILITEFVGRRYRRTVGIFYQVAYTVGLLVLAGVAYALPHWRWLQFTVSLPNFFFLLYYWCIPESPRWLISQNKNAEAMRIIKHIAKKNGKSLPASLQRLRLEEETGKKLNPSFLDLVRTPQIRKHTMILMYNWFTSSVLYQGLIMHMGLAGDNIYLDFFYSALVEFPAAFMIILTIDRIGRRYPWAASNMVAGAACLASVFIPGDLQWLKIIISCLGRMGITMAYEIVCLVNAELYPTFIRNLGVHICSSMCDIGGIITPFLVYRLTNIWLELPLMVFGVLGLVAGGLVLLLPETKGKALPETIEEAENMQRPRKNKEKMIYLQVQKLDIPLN
Experimental: (§1) SLC22A1 cDNA and SLC22A2 cDNA had been PCR-amplified from human liver and kidney, respectively, as reported elsewhere and cDNAs were provided by the German Cancer Research Center; the study and the use of the tissue were approved by the institutional review board of the German Cancer Center, Heidelberg, Germany. Since the data were analyzed anonymously, and tissues were left-over samples from diagnostic procedures, written informed consent had not been required and obtained. IRB specifically waived the need for consent due to the fact the human tissue material used was fully anonymized. SLC22A3 cDNA was amplified using SLC22A3-TrueClone (Origene, Rockville, MD, USA) as the template. SLC22A1 cDNA was cloned into the expression vector pcDNA3.1/Hygro(-) (Invitrogen, Darmstadt, Germany), SLC22A2 and SLC22A3 cDNA into pcDNA3.1(+) (Invitrogen). […] HEK cells were grown in DMEM (Sigma) supplemented with 10% fetal bovine serum (Sigma), 100 U⋅ml^−1 penicillin, and 100 µg⋅ml^−1 streptomycin (Lonza, Basel, Switzerland) at 37°C and 5% CO2. HEK cells were transfected with Metafectene Pro (Biontex, München, Germany). Selection of clones stably expressing OCT1 was carried out with 0.5 mg⋅ml^−1 hygromycin as described. Similarly, clones stably expressing OCT2 or OCT3 were selected with 800 µg⋅ml^−1 G418. HEK cells stably transfected with the empty pcDNA3.1(+) vector served as controls (HEK-Co). Cells were incubated with 5 mM butyrate 24 h before use to increase protein levels of recombinant transporters.
(§2) HEK cells (400000 cells/well) were seeded into 24-well cell culture plates (Greiner Bio-One, Frickenhausen, Germany) and grown for 48 h. Cell adherence was improved by coating plates with poly-L-lysine (Biochrom AG, Berlin, Germany) prior to cell plating. All uptake studies were carried out at 37°C as described. […] Uptake was stopped at indicated time points by removing the uptake buffer and immediately washing the cells 3 times with ice-cold uptake buffer. Cells were lysed with 0.2% SDS and intracellular radioactivity was determined by liquid scintillation counting (Hidex 300SL TDCR liquid scintillation counter, Turku, Finland).
(§3) OCT-specific metformin uptake was obtained by subtracting metformin uptake in the presence of 2 mM unlabeled 1-methyl-4-phenylpyridinium (MPP) from that in its absence. […] OCT-specific metformin uptake in the presence of a PPI was then calculated as percentage of that in the absence of the respective PPI (100% uninhibited). For each PPI concentration, 3 individual experiments each with 3 parallel measurements were performed. Apparent IC50 values for inhibition of metformin uptake by PPIs were calculated for each individual experiment by fitting the values to the Hill equation using GraphPad Prism 4 (GraphPad Software Inc., La Jolla, CA, USA). Values in Table 1 are given as the means ± SE of the 3 individual experiments.

[2] = target: T2, human OCT1 (Homo sapiens, UniProt O15245); experiment: Inhibition of OCT1-mediated metformin uptake in stably transfected HEK cells; format: cell-based; details: for IC50: 5 µM [14C]metformin uptake, 5 min, HEK-OCT1, means ± SE of 3 experiments
T2 sequence (O15245 1-554): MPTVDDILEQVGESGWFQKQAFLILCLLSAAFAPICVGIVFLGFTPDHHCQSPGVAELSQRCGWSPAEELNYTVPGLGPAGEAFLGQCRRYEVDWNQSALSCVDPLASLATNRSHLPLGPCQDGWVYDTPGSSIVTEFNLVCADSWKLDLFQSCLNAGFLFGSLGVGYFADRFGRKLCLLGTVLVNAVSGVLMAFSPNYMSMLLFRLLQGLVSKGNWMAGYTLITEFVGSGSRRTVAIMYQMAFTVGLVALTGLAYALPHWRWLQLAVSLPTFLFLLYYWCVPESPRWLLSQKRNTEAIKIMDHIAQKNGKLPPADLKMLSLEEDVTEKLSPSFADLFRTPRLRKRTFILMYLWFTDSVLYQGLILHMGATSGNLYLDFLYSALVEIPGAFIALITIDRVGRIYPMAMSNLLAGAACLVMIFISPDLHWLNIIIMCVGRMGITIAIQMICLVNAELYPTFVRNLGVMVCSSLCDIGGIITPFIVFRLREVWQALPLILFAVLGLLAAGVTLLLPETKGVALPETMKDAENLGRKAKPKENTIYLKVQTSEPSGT
Experimental: as §1, §2, §3

[3] = Pharmacokinetic data of PPIs in humans; format: in vivo; details: maximal total concentration in portal venous blood
[4] = parameters: method as in earlier work; details: computed property from PubChem Compound database; cited from earlier work
[5] = humans, maximal total concentration in systemic circulation, cited from earlier work
[6] = system: OCT2; parameters: method as in PMID 21103969; details: transport substrate; cited from earlier work
[7] = system: OCT1; parameters: method as in PMID 21103969; details: transport substrate; cited from earlier work
[8] = system: OCT3; parameters: method as in PMID 21103969; details: transport substrate; cited from earlier work
[9] = 5 µM metformin, 2 mM unlabeled MPP

Row | Compound | IC50 [1] | IC50 [2] | Heavy atom count [4] | Tautomer count [4] | also measured
1 | COc1ccc2[nH]c([S+]([O-])Cc3ncc(C)c(OC)c3C)nc2c1 (stereo not drawn) [Omeprazole] | 6.7 ± 2.1 µM | 15.7 ± 3.8 µM | 24 | 2 | Calculated Cport.vn. ([3]; equation 1 in ref 56, dosage 20 mg (58 µmol)): 5.4 µM; Cmax ([5]; dosage 20 mg (58 µmol)): 1800 nM
2 | COCCCOc1ccnc(C[S+]([O-])c2nc3ccccc3[nH]2)c1C (stereo not drawn) [Rabeprazole] | 5.7 ± 0.5 µM | 3 ± 1.7 µM | 25 | 0 | OCT1-mediated metformin uptake at low PPI concentrations ([2]; low concentrations of PPI, Figure 3): activated; Calculated Cport.vn. ([3]; equation 1 in ref 56, dosage 20 mg (56 µmol)): 4.7 µM; Cmax ([5]; dosage 20 mg (56 µmol)): 1200 nM
3 | Cc1c(OCC(F)(F)F)ccnc1C[S+]([O-])c1nc2ccccc2[nH]1 (stereo not drawn) [Lansoprazole] | 9.5 ± 3.8 µM | 35.8 ± 5.8 µM | 25 | 0 | Calculated Cport.vn. ([3]; equation 1 in ref 56, dosage 30 mg (81 µmol)): 7.8 µM; Cmax ([5]; dosage 30 mg (81 µmol)): 2700 nM
4 | COc1ccc2[nH]c([S+]([O-])Cc3ncc(C)c(OC)c3C)nc2n1 (stereo not drawn) [Tenatoprazole] | 20.3 ± 7.2 µM | 23.3 ± 7.1 µM | 24 | 3 | Calculated Cport.vn. ([3]; equation 1 in ref 56, dosage 40 mg (116 µmol)): 17.2 µM; Cmax ([5]; dosage 40 mg (116 µmol)): 10000 nM
5 | C[n+]1ccc(-c2ccccc2)cc1 [MPP, 1-methyl-4-phenylpyridinium] | – | – | – | – | Metformin uptake by HEK-OCT2 in the presence of MPP [1, 9]: almost completely absent; Metformin uptake by HEK-OCT1 in the presence of MPP [2, 9]: almost completely absent; Km [6]: 3 to 19 µM; Km [7]: 15 to 32 µM; Km [8]: 47 to 83 µM
6 | COc1ccnc(C[S+]([O-])c2nc3ccc(OC(F)F)cc3[nH]2)c1OC (stereo not drawn) [Pantoprazole] | 2.8 ± 0.9 µM | 30.8 ± 8.8 µM | 26 | 2 | Calculated Cport.vn. ([3]; equation 1 in ref 56, dosage 40 mg (104 µmol)): 12.0 µM; Cmax ([5]; dosage 40 mg (104 µmol)): 5500 nM
